Measured values: article PMC3214022, “Plasmodium falciparum Parasites Are Killed by a Transition State Analogue of Purine Nucleoside Phosphorylase in a Primate Animal Model” (PLoS ONE, 2011)

Test: Weights, CBC, blood chemistry and signs of toxicity, Table S1 sheet PD-2 (infected Aotus, twice a day for seven days)
Assay type: in vivo, Aotus lemurinus lemurinus
Settings: oral 10 mg/kg twice a day/7 days, 25044 Male (ITM2)
Description: Laboratory bred Aotus lemurinus lemurinus monkeys (0.75–0.89 kg) were maintained as described. […] Blood samples were collected before the treatment started (t = 0), 0.05 h, 0.5 h, 1 h, 2 h, 6 h, 24 h, 48 h, and 6, 12 and 18 days after the first dose from each monkey and processed as described below. Pharmacokinetic parameters were calculated using PKSolver. For efficacy studies, Aotus monkeys were inoculated intravenously with 5×10^6 parasites of the FVO strain of P. falciparum in an approved treatment protocol. […] Parasitaemia was determined by Giemsa-stained thick blood smears prepared daily from the marginal ear vein [41]. Blood samples were collected from each monkey and transferred to tubes containing lithium heparin, centrifuged and both plasma and blood cells were frozen at −80 °C until analysis. Animals received a physical examination and blood chemistry profiles were monitored after treatment as described previously. Any monkey not responding appropriately to treatment was cured of its infection with mefloquine (40 mg kg^−1). […] The day of clearance is defined as the first of three consecutive days in which the thick blood films are parasite negative. The day of recrudescence is the first of three consecutive days of positive thick blood films after a period of clearance. Suppression is defined as a transient decrease in the parasite count post-treatment without clearance.

Nc1nc2c(CN3CC(O)C(CO)C3)c[nH]c2c(=O)[nH]1 (stereo not shown) [BCX4945, 4′-deaza-1′-aza-2′-deoxy-1′-(9-methylene)-Immucillin-G]
Blood Urea Nitrogen (day 8): 14.7 mg/dL
Creatine (day 8): 0.5 mg/dL
Erythrocytes (day 8): 4.72e+06 µL⁻¹
Glutamate Pyruvate Transaminase (day 8): 18.8 U/L
Granulocytes (%) (day 8): 14.6%
Granulocytes (x 103/ul) (day 8): 2.8 x 103/ul
Hematocrit (day 8): 36.6%
Hemoglobin (day 8): 12.9 g/dL
Leucocytes (day 8): 18900 µL⁻¹
Lymphocytes (%) (day 8): 74.4%
Lymphocytes (x 103/ul) (day 8): 14.1 x 103/ul
Mean Corpuscular Volume (day 8): 77.6 fL
Mean Hemoglobin Content (day 8): 35.3 g/dL
Mean Platelet Volume (day 8): 11.8 fL
Monocytes (%) (day 8): 11%
Monocytes (x 103/ul) (day 8): 2.1 x 103/ul
Platelets (day 8): 276000 µL⁻¹
Red Cell Distribution Width (day 8): 16.9%
Reticulocytes (day 8): 1.8%
WEIGHT (day 8): 820 g
Blood Urea Nitrogen (day 12): 12.6 mg/dL
Creatine (day 12): 0.5 mg/dL
Erythrocytes (day 12): 4.24e+06 µL⁻¹
Glutamate Pyruvate Transaminase (day 12): 48.0 U/L
Granulocytes (%) (day 12): 20%
Granulocytes (x 103/ul) (day 12): 2.6 x 103/ul
Hematocrit (day 12): 33.5%
Hemoglobin (day 12): 11.4 g/dL
Leucocytes (day 12): 13200 µL⁻¹
Lymphocytes (%) (day 12): 68.9%
Lymphocytes (x 103/ul) (day 12): 9.1 x 103/ul
Mean Corpuscular Hemoglobin (day 12): 27 pg
Mean Corpuscular Volume (day 12): 78.9 fL
Mean Hemoglobin Content (day 12): 34.2 g/dL
Mean Platelet Volume (day 12): 9.6 fL
Monocytes (%) (day 12): 11.1%
Monocytes (x 103/ul) (day 12): 1.5 x 103/ul
Platelets (day 12): 264000 µL⁻¹
Red Cell Distribution Width (day 12): 20.2%
Reticulocytes (day 12): 3.8%
WEIGHT (day 12): 840 g
Blood Urea Nitrogen (day 15): 13.8 mg/dL
Creatine (day 15): 0.5 mg/dL
Erythrocytes (day 15): 4.68e+06 µL⁻¹
Glutamate Pyruvate Transaminase (day 15): 29.1 U/L
Granulocytes (%) (day 15): 11.9%
Granulocytes (x 103/ul) (day 15): 3.4 x 103/ul
Hematocrit (day 15): 38.8%
Hemoglobin (day 15): 13.6 g/dL
Leucocytes (day 15): 28300 µL⁻¹
Lymphocytes (%) (day 15): 78.1%
Lymphocytes (x 103/ul) (day 15): 22.1 x 103/ul
Mean Corpuscular Hemoglobin (day 15): 29 pg
Mean Corpuscular Volume (day 15): 83 fL
Mean Hemoglobin Content (day 15): 34.9 g/dL
Mean Platelet Volume (day 15): 12.8 fL
Monocytes (%) (day 15): 10%
Monocytes (x 103/ul) (day 15): 2.8 x 103/ul
Platelets (day 15): 258000 µL⁻¹
Red Cell Distribution Width (day 15): 23.1%
Reticulocytes (day 15): 2.6%
WEIGHT (day 15): 830 g
Blood Urea Nitrogen (day 18): 15.2 mg/dL
Creatine (day 18): 0.5 mg/dL
Erythrocytes (day 18): 4.88e+06 µL⁻¹
Glutamate Pyruvate Transaminase (day 18): 22.3 U/L
Granulocytes (%) (day 18): 15.5%
Granulocytes (x 103/ul) (day 18): 2.7 x 103/ul
Hematocrit (day 18): 40.6%
Hemoglobin (day 18): 13.7 g/dL
Leucocytes (day 18): 17100 µL⁻¹
Lymphocytes (%) (day 18): 78%
Lymphocytes (x 103/ul) (day 18): 13.3 x 103/ul
Mean Corpuscular Hemoglobin (day 18): 28.1 pg
Mean Corpuscular Volume (day 18): 83.2 fL
Mean Hemoglobin Content (day 18): 33.8 g/dL
Mean Platelet Volume (day 18): 12.1 fL
Monocytes (%) (day 18): 6.5%
Monocytes (x 103/ul) (day 18): 1.1 x 103/ul
Platelets (day 18): 247000 µL⁻¹
Red Cell Distribution Width (day 18): 22.6%
Reticulocytes (day 18): 2.2%
WEIGHT (day 18): 820 g
Erythrocytes (day 25): 4.04e+06 µL⁻¹
Granulocytes (%) (day 25): 11.4%
Granulocytes (x 103/ul) (day 25): 2.3 x 103/ul
Hematocrit (day 25): 34.8%
Leucocytes (day 25): 19900 µL⁻¹
Lymphocytes (%) (day 25): 79.1%
Lymphocytes (x 103/ul) (day 25): 15.7 x 103/ul
Mean Corpuscular Hemoglobin (day 25): 27.6 pg
